Data reported in US20090076142A1, “USE OF THE IRRITATING PRINCIPAL OLEOCANTHAL IN OLIVE OIL, AS WELL AS STRUCTURALLY AND FUNCTIONALLY SIMILAR COMPOUNDS” (The Trustees of the University of Pennsylvania, priority 2005, published 2009).

Legend:
soybean 15-lipoxygenase = target: T1, soybean 15-lipoxygenase (Glycine max, UniProt P08170); experiment: 15-lipoxygenase inhibition assay (Cayman Chemicals kit); assay type: biochemical; conditions: mean ± SEM, three independent experiments, read-out: Percent inhibition of 15-LO
T1 construct: purchased Cayman Chemicals
T1 sequence (P08170 1-839): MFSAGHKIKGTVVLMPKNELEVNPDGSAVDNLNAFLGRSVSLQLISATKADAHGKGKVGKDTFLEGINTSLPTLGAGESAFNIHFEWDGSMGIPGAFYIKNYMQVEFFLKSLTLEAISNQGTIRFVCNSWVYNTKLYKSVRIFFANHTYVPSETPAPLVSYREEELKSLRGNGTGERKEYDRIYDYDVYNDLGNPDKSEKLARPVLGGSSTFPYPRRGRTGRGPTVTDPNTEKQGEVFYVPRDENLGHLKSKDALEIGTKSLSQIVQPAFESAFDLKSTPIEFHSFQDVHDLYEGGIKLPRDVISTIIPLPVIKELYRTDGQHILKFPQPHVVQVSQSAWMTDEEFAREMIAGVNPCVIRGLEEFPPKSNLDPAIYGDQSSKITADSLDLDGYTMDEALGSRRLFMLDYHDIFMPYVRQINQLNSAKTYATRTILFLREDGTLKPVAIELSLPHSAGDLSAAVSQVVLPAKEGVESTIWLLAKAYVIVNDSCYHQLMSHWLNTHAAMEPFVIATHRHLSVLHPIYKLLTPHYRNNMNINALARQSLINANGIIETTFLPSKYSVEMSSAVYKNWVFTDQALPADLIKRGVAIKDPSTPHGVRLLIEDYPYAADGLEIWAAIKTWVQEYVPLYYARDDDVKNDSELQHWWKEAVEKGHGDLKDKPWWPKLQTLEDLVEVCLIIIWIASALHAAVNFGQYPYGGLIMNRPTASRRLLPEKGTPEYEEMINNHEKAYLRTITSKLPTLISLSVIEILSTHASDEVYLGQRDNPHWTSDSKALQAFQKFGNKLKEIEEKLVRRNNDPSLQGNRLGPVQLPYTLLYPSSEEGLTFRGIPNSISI

human recombinant COX-2 = target: T2, human recombinant COX-2 (Homo sapiens, UniProt P35354); experiment: Cyclooxygenase COX-2 inhibition assay (Cayman Chemicals kit); assay type: biochemical; conditions: for inhibition at 7 µM / inhibition at 25 µM / inhibition at 100 µM: mean ± SEM, three independent experiments, read-out: Percent inhibition of COX-2; for IC50: least squares regression analysis of inhibition vs. concentration, read-out: calculated IC50 for COX-2
T2 construct: purchased Cayman Chemicals
T2 sequence (P35354 18-604): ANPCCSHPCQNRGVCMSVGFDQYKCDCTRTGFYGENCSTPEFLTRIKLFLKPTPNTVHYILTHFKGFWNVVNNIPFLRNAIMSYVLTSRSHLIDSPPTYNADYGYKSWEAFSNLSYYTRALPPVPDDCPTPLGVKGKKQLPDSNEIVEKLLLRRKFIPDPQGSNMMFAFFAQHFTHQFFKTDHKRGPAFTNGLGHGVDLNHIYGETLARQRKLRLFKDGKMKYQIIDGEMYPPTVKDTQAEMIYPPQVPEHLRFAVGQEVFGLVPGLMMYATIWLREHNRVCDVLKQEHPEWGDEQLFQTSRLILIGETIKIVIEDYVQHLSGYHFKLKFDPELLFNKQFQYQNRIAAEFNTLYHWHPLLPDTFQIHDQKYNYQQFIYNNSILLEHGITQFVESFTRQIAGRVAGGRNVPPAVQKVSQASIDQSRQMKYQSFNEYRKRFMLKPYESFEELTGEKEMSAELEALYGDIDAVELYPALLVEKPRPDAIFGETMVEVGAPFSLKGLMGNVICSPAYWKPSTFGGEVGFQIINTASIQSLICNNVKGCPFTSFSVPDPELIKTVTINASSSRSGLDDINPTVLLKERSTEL

ovine COX-1 = target: T3, ovine COX-1 (Ovis aries, UniProt P05979); experiment: Cyclooxygenase COX-1 inhibition assay (Cayman Chemicals kit); assay type: biochemical; conditions: for inhibition at 7 µM / inhibition at 25 µM / inhibition at 100 µM: mean ± SEM, three independent experiments, read-out: Percent inhibition of COX-1; for IC50: least squares regression analysis of inhibition vs. concentration, read-out: calculated IC50 for COX-1
T3 construct: purchased Cayman Chemicals
T3 sequence (P05979 25-600): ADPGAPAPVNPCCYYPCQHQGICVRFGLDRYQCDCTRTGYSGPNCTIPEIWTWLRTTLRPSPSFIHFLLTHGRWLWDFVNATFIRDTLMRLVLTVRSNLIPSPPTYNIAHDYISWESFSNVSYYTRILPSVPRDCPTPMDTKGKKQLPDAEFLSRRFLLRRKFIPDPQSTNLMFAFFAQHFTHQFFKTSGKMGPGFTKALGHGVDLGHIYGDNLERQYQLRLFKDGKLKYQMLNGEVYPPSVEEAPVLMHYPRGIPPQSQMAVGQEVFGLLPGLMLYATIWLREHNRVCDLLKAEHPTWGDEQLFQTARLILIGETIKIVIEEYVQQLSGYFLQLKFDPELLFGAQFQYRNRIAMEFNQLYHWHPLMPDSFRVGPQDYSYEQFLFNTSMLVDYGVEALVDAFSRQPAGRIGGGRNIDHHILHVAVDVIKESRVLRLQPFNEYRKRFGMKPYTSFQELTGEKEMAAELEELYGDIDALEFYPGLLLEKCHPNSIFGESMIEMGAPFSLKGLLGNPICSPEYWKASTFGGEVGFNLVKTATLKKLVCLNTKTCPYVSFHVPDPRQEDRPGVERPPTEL

throat irritation = experiment: Throat irritation sensory test, two-alternative forced-choice, compound in corn oil; assay type: in vivo, human
Method: Testing was double-blind and each was exposed to three sets of two samples, one of which was added synthesized oleocanthal and the other served as the blank control. The task was to indicated which of the pair was more irritating. […] Importantly, the effect was dose dependent (FIG. 2 open triangles, dashed line). Ten subjects were tested with non-irritating commercial corn oils presented neat and mixed with either synthesized (−)-oleocanthal or the bitter agent sucrose octaacetate (SOA) (Sigma-Aldrich). […] (−)-Oleocanthal was tested at the highest concentration identified in the ten rated oils, 200 μg/ml, and at one half and whole log steps more dilute 63.25 and 20 μg/ml. SOA was added to the corn oil (4×10^−4, 1×10^−4, 5×10^−5 M) to intensity match the irritation of the three levels of (−)-oleocanthal. Subjects participated in two-alternative forced-choice (2AFC) trials (four trials at every concentration for each subject) and in intensity ratings sessions (four ratings per each oil). For the 2AFC trials subjects were presented with two 3.0 ml corn oil samples with matching intensities of SOA and (−)-oleocanthal in ascending order, and were required to sample oils as described above. While blind to stimulus position, subjects were asked two questions on each trial, “Which of the two oils was more irritating in the throat?” and “Which one was more bitter?” At the 20 μg/ml & 5×10^−5 M level most subjects reported on some trials that the same oil was both the more irritating and the more bitter of the two. […] Subjects performed at chance when selecting among two unadulterated corn oils, when the correct choice was randomly assigned prior to testing. […] The other two concentrations were correct 39/40 and 40/40 trials. For the intensity rating trials subjects were presented with all eight oils in ascending order, counterbalanced for stimulus order and asked to rate the throat irritation and bitterness of every oil on a general labeled magnitude scale.

| inhibition at 7 µM (soybean 15-lipoxygenase) [%] | inhibition at 25 µM (soybean 15-lipoxygenase) [%] | inhibition at 7 µM (human recombinant COX-2) [%] | inhibition at 25 µM (human recombinant COX-2) [%] | inhibition at 100 µM (human recombinant COX-2) [%] | IC50 (human recombinant COX-2) [µM] | inhibition at 100 µM (soybean 15-lipoxygenase) [%] | inhibition at 7 µM (ovine COX-1) [%] | inhibition at 25 µM (ovine COX-1) [%] | inhibition at 100 µM (ovine COX-1) [%] | IC50 (ovine COX-1) [µM] | Structure (SMILES) | correct 2AFC trials (more irritating in the throat) (throat irritation; 20 μg/ml in corn oil vs SOA, ten subjects) | detection threshold level of throat irritation in corn oil (throat irritation; corn oil, ten subjects) [µg/mL] | throat irritation compared with oleocanthal isolated from premium olive oil (throat irritation; synthetic compound in corn oil) | correct identification of the more irritating sample (2AFC) (throat irritation; three evaluators, three presentations, corn oil, approximately twice the concentration found in Falconaro olive oil, p<0.01) |
| --- | --- | --- | --- | --- | --- | --- | --- | --- | --- | --- | --- | --- | --- | --- | --- |
| 19.8 ± 1.3 | 25.2 ± 2.2 | – | – | – | – | – | – | – | – | – | O=C(O)/C=C/c1ccc(O)c(O)c1 [Caffeic Acid, caffeic acid, reference compound] | – | – | – | – |
| 0.5 ± 0.1 | 0.1 ± 0.9 | – | – | – | – | – | – | – | – | – | COc1ccc2c(c1)c(CC(=O)O)c(C)n2C(=O)c1ccc(Cl)cc1 [Indomethacin, reference compound] | – | – | – | – |
| 0 | 0.7 ± 1 | 6.1 ± 4.2 | 41.3 ± 15.9 | 69.6 ± 3.9 | 40.5 | 3.5 ± 5.5 | 24.6 ± 7.5 | 54.5 ± 4.6 | 68 ± 15.2 | 27.9 | CC=C(C=O)C(CC=O)CC(=O)OCCc1ccc(O)cc1 (single isomer, unassigned) [Oleocanthal (+)] | – | – | – | – |
| 0 | 0 | 14.5 ± 2.3 | 56.6 ± 9.5 | 70.9 ± 8.6 | 29.4 | 0.4 ± 0.8 | 24.6 ± 7.3 | 56.1 ± 3.2 | 83.5 ± 3.5 | 21.4 | C/C=C(/C=O)[C@@H](CC=O)CC(=O)OCCc1ccc(O)cc1 [Oleocanthal (−), 2-(4-hydroxyphenyl)ethyl, 4-formyl-3-(2-oxoethyl)-4-hexenoic acid ester] | 24 out of 40 | ~20 | identical to oleocanthal isolated from premium olive oil | 9 of 9 |
